The results in this text go back to PMC10196813 (Angewandte Chemie (International ed. in English), 2023).

The test has as its system PTP1B/TC-PTP. In kind it is cell-based. Particulars: HEK293 cells, followed by 4 h DU-14 at 100 nM.

SMILES strings stand for the structures. Peptide text beside a SMILES is read from it. * marks the point of attachment. Cbz = O=C(OCc1ccccc1)*

Turning to `Cc1ncsc1-c1ccc([C@H](C)NC(=O)[C@@H]2C[C@@H](O)CN2C(=O)[C@@H](N)C(C)(C)C)cc1` [(S,R,S)-AHPC-Me], the “effect of pre-treatment/addition on DU-14 mediated PTP1B and TC-PTP degradation” value (“effect of pre-treatment/addition” below) is given as “reduced”.
Turning to `Nc1cccc2c1CN(C1CCC(=O)NC1=O)C2=O` (stereo not shown) [Lenalidomide], the “effect of pre-treatment/addition” value is reported as “had no effect”.
`CC(C)C[C@@H](C=O)NC(=O)[C@H](CC(C)C)NC(=O)[C@H](CC(C)C)NC(=O)OCc1ccccc1` [MG-132] (Cbz-Leu-Leu-Leu-aldehyde): the “effect of pre-treatment/addition” value is “markedly reduced”.
As for `NS(=O)(=O)OC[C@@H]1C[C@@H](n2ccc3c(N[C@H]4CCc5ccccc54)ncnc32)C[C@@H]1O` [MLN-4924], the “effect of pre-treatment/addition” value is “markedly reduced”.
